Assay [1] relates to BCR signaling through BTK. Briefly: Anti-IgM induced CD86 and CD69 on splenocyte B cells of CIA mice. To be noted: splenocytes 3 hr after last dosing on day 14. It counts as in vivo, mouse. On the procedure:
FIG. 45 illustrates changes in a functional measure of BCR signalling through the CD86 marker. Mouse splenocytes were isolated from spleens from mice that were part of the mouse CIA study semi-therapeutic protocol, 3 hr after the last dosing on day 14 of the treatment and cryopreserved. After thawing, inhibition of anti-IgM-induced PD markers CD86 and CD69 on mouse splenocyte B cells were measured. Error bars represent the standard deviation for the 3 sets of splenocytes analyzed.
FIG. 46 illustrates changes in a functional measure of BCR signalling through the CD69 marker. Mouse splenocytes were isolated from spleens from mice that were part of the mouse CIA study semi-therapeutic protocol, 3 hr after the last dosing on day 14 of the treatment and cryopreserved. After thawing, inhibition of anti-IgM-induced PD markers CD86 and CD69 on mouse splenocyte B cells were measured. Error bars represent the standard deviation for the 3 sets of splenocytes analyzed.
Inhibition of the BCR signaling through BTK was evaluated by ex vivo stimulation of splenocytes using IgM and evaluation of CD86 and CD69 as functional responses of BCR stimulation.

Assay [2] relates to established type II collagen-induced arthritis (CIA) in DBA/1 mice. Briefly: 14-day mouse established type II collagen-induced arthritis (CIA), PO QD (Example 10). It is filed as in vivo. To be noted: for AUC (All Paws) - Corrected for Initial Score / Change in Body Weight (g) / Histopathology Summed Score Knees / Histopathology Summed Score Paws / Histopathology Summed Score Six-Joints / Paw Score AUC (All Paws): mean(SE). The protocol:
Prior to dosing, the candidate anti-inflammatory agents were reconstituted either by vortexing or stirring. The candidate anti-inflammatory agents were administered to the DBA/1 mice daily (QD) by the oral (PO) route.
Immunization with heterologous type II collagen (CII) induces arthritis in mice of the DBA/1 strain, which is genetically susceptible to this disease. To develop an experimental model of autoimmunity more adequate for the study of human rheumatoid arthritis (RA), male DBA/1 mice were injected intradermally (ID) with bovine type II collagen to induce arthritis as reported by Trentham et al (Trentham D E, Townes A S, Kang A H Autoimmunity to type II collagen: an experimental model of arthritis. J. Exper. Med. 1977, 146:857-868) and Bendele A (Bendele A, Animal models of rheumatoid arthritis. J. Musculoskelet. Neuronal Interact. 2001, 1(4):377-85). Male DBA/1 mice (n=114) that were 6-7 weeks old and weighed approximately 18-27 grams (mean 22 g) at enrollment (arthritis day 1) were obtained from Taconic Farms, Inc. The male DBA/1 mice were at least 6 weeks old at time of first immunization and were housed 3-5/cage in shoe-box polycarbonate cages with wire tops, wood chip bedding, and suspended food and water bottles. These animals were identified by a distinct number of ink marks at the base of the tail delineating animal number. After enrollment, all cages were labeled with protocol number, group number, and animal numbers.
The male DBA/1 (n=10/group for arthritis) were anaesthetized with Isoflurane, shaved at the base of the tail, and injected intradermally with 150 μL of Freund's Complete Adjuvant (Difco, Detroit, Mich.) containing bovine type II collagen (BBP, batch #7) (1 mg/ml) at the base of the tail on day 0 and again on day 21. […] Randomization was done after swelling was obviously established in at least one paw (score of 1) and attempts were made to ensure approximately equal mean scores of 0.5-1 across groups at the time of enrollment. […] The male DBA/1 mice were terminated on arthritis day 14 (3 hours post-dose).
Efficacy evaluation of the administered anti-inflammatory agents was based on animal body weights, clinical arthritis scores, arthritis scores expressed as area under the curve (AUC), and histopathology on fore paws, hind paws, and knees. Histopathology results were expressed as 4 paws, knees only, or 6 joints (knees included). Day 13 was used as the endpoint for analysis of body weight change since the male DBA/1 mice were fasted overnight prior to necropsy on day 14.

Assay [3] has the same test system. Briefly: Mouse established CIA, dosing from arthritis day 8, QD or BID (Example 11). It is filed as in vivo. The text has this: A study was designed to determine the efficacy of a covalently acting BTK inhibitor, Formula (II) in inhibiting acute inflammation, pannus formation, cartilage destruction, and bone resorption associated with established type II collagen-induced arthritis (CIA) in DBA/1 mice. Immunization with heterologous type II collagen (CII) induces arthritis in mice of the DBA/1 strain, which is genetically susceptible to this disease. To develop an experimental model of autoimmunity more adequate for the study of human rheumatoid arthritis (RA), male DBA/1 mice were injected intradermally (ID) with bovine type II collagen to induce arthritis as reported by Trentham et al (Trentham D E, Townes A S, Kang A H Autoimmunity to type II collagen: an experimental model of arthritis. J. Exper. Med. 1977, 146:857-868) and Bendele A (Bendele A, Animal models of rheumatoid arthritis. J. Musculoskelet. Neuronal Interact. 2001, 1(4):377-85).
Following acclimatization, 6-7 week old male DBA/1 mice (n=10/group for arthritis) were immunized at the base of the tail, with 150 μL of Freund's Complete Adjuvant (Difco, Detroit, Mich.) containing 1 mg/mL bovine type II collagen by intradermal injection. Immunizations were performed day 0 and again on day 21. On study days 25-26, on day 8 following onset of arthritis, the mice were randomized into treatment groups. […] Dosing began on arthritis day 8 by oral gavage. Groups were treated with vehicle (0.4% HPMC, 0.2% Tween 80), Formula (II) at 25 mg/kg QD, Formula (II) at 12.5 mg/kg BID, or the reference compound dexamethasone (Dex) at 0.2 mg/kg QD. These animals were fasted overnight on arthritis day 20 (13 days after enrollment) prior to necropsy on arthritis day 21. Clinical scores were given for each of the paws (right front, left front, right rear, left rear) on arthritis days 1-21.
Efficacy evaluation was based on animal body weights, clinical arthritis scores, arthritis scores expressed as area under the curve (AUC), and histopathology on fore paws, hind paws, and knees. Histopathology results were expressed as 4 paws, knees only, or 6 joints (knees included). Day 19 was used as the endpoint for analysis of body weight change since the male DBA/1 mice were fasted overnight prior to necropsy on day 21.
Necropsies were conducted on fasted mice and terminal serum, fore paws, hind paws, and knees were collected into 10% neutral buffered formalin (NBF) for microscopy. Spleens were harvested and weighed.

The subject of assay [4] is MDA-MB-231 tumor cells. The assay is described as follows: Osteolytic bone lesions after intratibial MDA-MB-231 tumor inoculation in nude rats. It is filed as in vivo, rat. The arrangement: mean visual lysis score: scale not given here; mean left tibial density: unit not given here. Particulars: zoledronate group (Group 2). The protocol:
FIG. 40A, FIG. 40B, FIG. 40C, FIG. 40D, FIG. 40E, FIG. 40F, and FIG. 40G illustrate the bone density in hind limbs of nude rats (n=6 per group) implanted with intratibial MDA-MB231 tumor […] and treated for up to 41 days with vehicle control, zoledronate (active control) or varying doses of Formula (II). Oral gavage administration of Formula (II) was scheduled as 3 days of initial QD dosing, followed by 30 days of BID dosing at the following dose levels: 3/3, 30/30, and 180/90 mg/kg/day. An untreated group of rats, without tibial implants (n=3) represents bone density of concurrently obtained normal rat tibial images. Statistical significance was determined by two-way ANOVA-Dunnett: ns=not significant, *=P<0.05, **=P<0.01, ***=P<0.001, versus Group 1.
Rats were inoculated with MDA-MB-231 tumor cells on Day 1, baseline radiographs were taken on Day 2, and treatment with Formula (II) began on Day 8. Radiographs were taken on Days 10, 17, 24, 31, 38, and 41. Anti-osteolytic activities were determined from differences in bone density and visual lysis scores between the drug-treated and vehicle-treated groups on each observation day, and also from changes in bone density and visual lysis scores in tumor-inoculated left tibias at baseline (Day 2) compared to Days 10, 17, 24,31, 38, and 41.
Radiographs were blinded for both analyses. […] Visual osteolysis was not detected in any rat in the nave group. The 4% increase in mean bone density from baseline to study end presumably reflected normal growth in these rats.

On to `CC#CC(=O)N1CCOC[C@H]1c1nc(-c2ccc(C(=O)Nc3ccccn3)cc2)c2c(N)nccn12` [(R)-4-(8-amino-3-(4-(but-2-ynoyl)morpholin-3-yl)imidazo[1,5-a]pyrazin-1-yl)-N-(pyridin-2-yl)benzamide], for which the “BCR-mediated signaling (anti-IgM induced CD86 and CD69)” value in assay [1] was “dose-responsive decreases in BCR-mediated signaling”. In assay [2] (5 mg/kg PO QD), the “six-joint histopathology, reduction of summed scores vs vehicle controls” value is on record as 75%; the “AUC (All Paws) - Corrected for Initial Score” value (from here on “AUC (All Paws) - Corrected”) was “*3.43(2.22)”; the “Change in Body Weight (g)” value is −0.04(0.92) g; the “Histopathology Summed Score Knees” value is “*2.65(0.79)”. Also, in assay [2] (5 mg/kg PO QD), the “Histopathology Summed Score Paws” value is on record as 4.24(1.07), the “Histopathology Summed Score Six-Joints” value is listed as “*3.71(0.87)” and the “Paw Score AUC (All Paws)” value is listed as “*10.58(2.95)”. Besides, in assay [2] (5 mg/kg PO QD, all paws), the “Clinical arthritis scores AUC, reduction vs vehicle controls” value came to 74% and the “Clinical arthritis scores AUC, reduction when corrected for initial enrollment score” value is given as 90%. The “arthritis scores measured daily vs vehicle controls” value in assay [2] (5 mg/kg PO QD, all paws, p<0.05 on the days printed) is “significantly reduced toward normal”. For the same compound, in assay [2] (5 mg/kg PO QD, p<0.05 on the days printed), the “disease-induced body weight loss (percent change from baseline) vs vehicle controls” value is “significantly inhibited toward normal”. For the same compound, the “daily arthritis scores vs vehicle controls” value in assay [2] (5 mg/kg PO QD, prophylactic paws) is “significantly reduced toward normal”. In addition, the “Clinical arthritis scores AUC, reduction vs vehicle controls” value in assay [2] (5 mg/kg PO QD, prophylactic paws only) is 95%. In addition, in assay [2] (all dose groups PO QD), the “spleen weights compared to vehicle controls” value was “not significantly affected”.

For the compound `C[C@@H]1C[C@H]2[C@@H]3CCC4=CC(=O)C=C[C@]4(C)[C@@]3(F)[C@@H](O)C[C@]2(C)[C@@]1(O)C(=O)CO` [Dex, dexamethasone, reference compound], in assay [2] (0.2 mg/kg PO QD), the “AUC (All Paws) - Corrected” value was “*−5.85(0.73)”, the “Change in Body Weight (g)” value was −2.22(0.54) g, the “Histopathology Summed Score Knees” value is “*1.80(0.66)” and the “Histopathology Summed Score Paws” value was “*0.09(0.09)”. Further, in assay [2] (0.2 mg/kg PO QD), the “Histopathology Summed Score Six-Joints” value is listed as “*0.66(0.21)” and the “Paw Score AUC (All Paws)” value is on record as “*1.30(0.37)”. Also, in assay [3] (0.2 mg/kg PO QD, mean(SE)), the “AUC (All Paws) - Corrected” value was “*−29.54(2.39)”, the “Change in Body Weight (g) Days 1-19” value is reported as −0.17(0.28) g, the “Histopathology Summed Score Knees” value is given as “*5.23(0.89)” and the “Histopathology Summed Score Paws” value is listed as “*7.20(1.00)”. Besides, in assay [3] (0.2 mg/kg PO QD, mean(SE)), the “Histopathology Summed Score Six-Joints” value is listed as “*6.54(0.91)” and the “Paw Score AUC (All Paws)” value was “*16.61(2.05)”. In addition, in assay [3] (0.2 mg/kg QD), the “absolute spleen weights, reduction vs vehicle controls” value is reported as 156%; the “knee bone resorption, reduction vs vehicle controls” value is 88%; the “knee cartilage damage, reduction vs vehicle controls” value is 39%; the “knee inflammation, reduction vs vehicle controls” value stood at 57%. Moreover, in assay [3] (0.2 mg/kg QD), the “knee pannus formation, reduction vs vehicle controls” value stood at 86%; the “six joint histopathology, reduction of summed scores” value turned out to be 57%; the “summed knee scores, reduction vs vehicle controls” value was 57%.

`O=P(O)(O)C(O)(Cn1ccnc1)P(=O)(O)O` [zoledronate, reference compound]: the entries for the “mean left tibial density” value in assay [4] (Day 2 baseline), in assay [4] (Day 31) and in assay [4] (Day 41) were 200.0±1.6, 207.8±1.6 and 211.2±1.6, respectively. The “increase in mean left tibial density” value in assay [4] (Day 2 to Days 31 and 41) is given as 4-6%. Moreover, the “mean visual lysis score” value in assay [4] (Days 31 and 41 each) worked out at 0.7.

The values are drawn from patent publication US20170143712A1, “Methods of Treating Cancers, Immune and Autoimmune Diseases, and Inflammatory Diseases Based on BTK Occupancy and BTK Resynthesis Rate” (Acerta Pharma B.V., priority 2014, published 2017).
